Test results as given in patent US6806230B1, “Pyrimidine derivatives and herbicides containing them” (Kumiai Chemical Industry Co., Ltd., priority 1999, dated 2004).

tested on: barnyard grass (Eo); assay: Test Example 1: herbicidal effects by flooded paddy field treatment; assay type: in vivo; parameters: herbicidal effects, Eo (barnyard grass):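 0-5 growth inhibition grade; 5 = over 90%; 4 = 70-90%; 3 = 50-70%; 2 = 30-50%; 1 = 10-30%; 0 = under 10%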; conditions: dose 100 g active ingredient per 10 ares, examined on the 21st day after treatment, standards of Table 44;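 for Herbicidal effect index, Eo: 0-5 growth inhibition grade; 5 = over 90%; 4 = 70-90%; 3 = 50-70%; 2 = 30-50%; 1 = 10-30%; 0 = under 10%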
Summary of the method: (§1)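 Herbicidal effect scored 21 days post-treatment after greenhouse cultivation. Treatment was applied dropwise to the water surface, one day after sowing, as a diluted wettable powder (100 g a.i./10 ares). Pots held puddled paddy soil under 3 cm water.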
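Throughout, for Herbicidal effect index, Mo: 0-5 growth inhibition grade; 5 = over 90%; 4 = 70-90%; 3 = 50-70%; 2 = 30-50%; 1 = 10-30%; 0 = under 10%.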

| Structure (SMILES) | herbicidal effects, Eo (barnyard grass) |
| --- | --- |
| CC(C)C(c1cncnc1C(F)(F)F)N(C)C(=S)Cc1ccc(F)cc1 (racemic) [Compound 1-143] | 5 |
| COc1ccc(C(C)C(=O)N(C)C(c2cncnc2C(F)(F)F)C(C)C)cc1 (mixture of isomers) [1-192] | 5 |
| CC(C(=O)N(C)C(c1cncnc1C(F)(F)F)C(C)C)c1ccc(F)cc1 (mixture of isomers) [1-198] | 5 |
| C#CCN(C(=O)Cc1ccc(Cl)cc1)C(c1cncnc1C(F)(F)F)C(C)C (racemic) [1-194] | 5 |
| CC(C)C(c1cncnc1C(F)F)N(C)C(=O)Cc1ccc(F)cc1 (racemic) [Compound 1-164] | 5 |
| CC(C(=O)N(C)C(c1cncnc1C(F)(F)F)C(C)C)c1ccccc1 (mixture of isomers) [1-195] | 5 |
| CC(C)c1ncncc1C(c1ccccc1)N(C)C(=O)Cc1ccc(F)cc1 (racemic) [1-214] | 5 |
| C#CCN(C(=O)Cc1ccccc1)C(c1cncnc1C(F)(F)F)C(C)C (racemic) [1-193] | 5 |
| CN(C(=O)Cc1ccc(Cl)cc1)C(c1cncnc1C(F)(F)F)C1CCCC1 (racemic) [Compound 1-139] | 5 |
| Cc1ccc(CC(=O)N(C)C(c2ccccc2)c2cncnc2C(F)(F)F)cc1 (racemic) [1-197] | 5 |
| CC(C)C(c1cncnc1C(F)(F)F)N(C)C(=O)Cc1ccc(Cl)c(F)c1 (racemic) [1-180] | 5 |
| CC(C)C(c1cncnc1C(F)(F)F)N(C)C(=O)CSc1ccccc1 (racemic) [1-182] | 5 |

same assay, conditions: dose 100 gai/10a, examined on 21st day after treatment, index 0-5 per Table 44

| Structure (SMILES) | Herbicidal effect index, Eo |
| --- | --- |
| CCCC(c1cncnc1C(F)(F)F)N(C)C(=O)Cc1ccc(F)cc1 (racemic) [Compound 1-112] | 5 |

tested on: monochoria (Mo); assay: as above; assay type: in vivo; parameters: herbicidal effects, Mo (monochoria):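 0-5 growth inhibition grade; 5 = over 90%; 4 = 70-90%; 3 = 50-70%; 2 = 30-50%; 1 = 10-30%; 0 = under 10%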; conditions: dose 100 g active ingredient per 10 ares, examined on the 21st day after treatment, standards of Table 44
Summary of the method: as §1

| Structure (SMILES) | herbicidal effects, Mo (monochoria) |
| --- | --- |
| CC(C)C(c1cncnc1C(F)(F)F)N(C)C(=S)Cc1ccc(F)cc1 (racemic) [Compound 1-143] | 5 |
| COc1ccc(C(C)C(=O)N(C)C(c2cncnc2C(F)(F)F)C(C)C)cc1 (mixture of isomers) [1-192] | 5 |
| CC(C(=O)N(C)C(c1cncnc1C(F)(F)F)C(C)C)c1ccc(F)cc1 (mixture of isomers) [1-198] | 5 |
| C#CCN(C(=O)Cc1ccc(Cl)cc1)C(c1cncnc1C(F)(F)F)C(C)C (racemic) [1-194] | 5 |
| CC(C)C(c1cncnc1C(F)F)N(C)C(=O)Cc1ccc(F)cc1 (racemic) [Compound 1-164] | 5 |
| CC(C(=O)N(C)C(c1cncnc1C(F)(F)F)C(C)C)c1ccccc1 (mixture of isomers) [1-195] | 5 |
| CC(C)c1ncncc1C(c1ccccc1)N(C)C(=O)Cc1ccc(F)cc1 (racemic) [1-214] | 5 |
| C#CCN(C(=O)Cc1ccccc1)C(c1cncnc1C(F)(F)F)C(C)C (racemic) [1-193] | 5 |
| CN(C(=O)Cc1ccc(Cl)cc1)C(c1cncnc1C(F)(F)F)C1CCCC1 (racemic) [Compound 1-139] | 5 |
| Cc1ccc(CC(=O)N(C)C(c2ccccc2)c2cncnc2C(F)(F)F)cc1 (racemic) [1-197] | 5 |
| CC(C)C(c1cncnc1C(F)(F)F)N(C)C(=O)Cc1ccc(Cl)c(F)c1 (racemic) [1-180] | 5 |
| CC(C)C(c1cncnc1C(F)(F)F)N(C)C(=O)CSc1ccccc1 (racemic) [1-182] | 5 |

same assay, conditions: dose 100 gai/10a, examined on 21st day after treatment, index 0-5 per Table 44

| Structure (SMILES) | Herbicidal effect index, Mo |
| --- | --- |
| CCCC(c1cncnc1C(F)(F)F)N(C)C(=O)Cc1ccc(F)cc1 (racemic) [Compound 1-112] | 5 |

tested on: barnyard grass (Ec); assay: Test Example 2: herbicidal effects by upland soil treatment; assay type: in vivo; parameters: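 0-5 growth inhibition grade; 5 = over 90%; 4 = 70-90%; 3 = 50-70%; 2 = 30-50%; 1 = 10-30%; 0 = under 10%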; conditions: dose 100 g active ingredient per 10 ares, examined on the 21st day after treatment, standards of Table 44
Summary of the method: (§2)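 Pre-emergence test: barnyard grass and green foxtail sown in upland soil, then soil surface sprayed with wettable-powder formulation at 100 g active ingredient per 10 ares (100 l per 10 ares). Grown in greenhouse; herbicidal effect scored on a rating scale 21 days after treatment.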

| Structure (SMILES) | herbicidal effects, Ec (barnyard grass) |
| --- | --- |
| CCCC(c1cncnc1C(F)(F)F)N(C)C(=O)Cc1ccc(F)cc1 (racemic) [Compound 1-112] | 5 |
| CC(C)C(c1cncnc1C(F)(F)F)N(C)C(=S)Cc1ccc(F)cc1 (racemic) [Compound 1-143] | 5 |
| COc1ccc(C(C)C(=O)N(C)C(c2cncnc2C(F)(F)F)C(C)C)cc1 (mixture of isomers) [1-192] | 5 |
| CC(C(=O)N(C)C(c1cncnc1C(F)(F)F)C(C)C)c1ccc(F)cc1 (mixture of isomers) [1-198] | 5 |
| C#CCN(C(=O)Cc1ccc(Cl)cc1)C(c1cncnc1C(F)(F)F)C(C)C (racemic) [1-194] | 5 |
| CC(C)C(c1cncnc1C(F)F)N(C)C(=O)Cc1ccc(F)cc1 (racemic) [Compound 1-164] | 5 |
| CC(C(=O)N(C)C(c1cncnc1C(F)(F)F)C(C)C)c1ccccc1 (mixture of isomers) [1-195] | 5 |
| CC(C)c1ncncc1C(c1ccccc1)N(C)C(=O)Cc1ccc(F)cc1 (racemic) [1-214] | 5 |
| C#CCN(C(=O)Cc1ccccc1)C(c1cncnc1C(F)(F)F)C(C)C (racemic) [1-193] | 5 |
| CN(C(=O)Cc1ccc(Cl)cc1)C(c1cncnc1C(F)(F)F)C1CCCC1 (racemic) [Compound 1-139] | 5 |
| Cc1ccc(CC(=O)N(C)C(c2ccccc2)c2cncnc2C(F)(F)F)cc1 (racemic) [1-197] | 5 |
| CC(C)C(c1cncnc1C(F)(F)F)N(C)C(=O)Cc1ccc(Cl)c(F)c1 (racemic) [1-180] | 5 |
| CC(C)C(c1cncnc1C(F)(F)F)N(C)C(=O)CSc1ccccc1 (racemic) [1-182] | 5 |

tested on: green foxtail (Se); assay: as above; assay type: in vivo; conditions: dose 100 g active ingredient per 10 ares, examined on the 21st day after treatment, standards of Table 44;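 note: 0-5 growth inhibition grade; 5 = over 90%; 4 = 70-90%; 3 = 50-70%; 2 = 30-50%; 1 = 10-30%; 0 = under 10%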
Summary of the method: as §2

| Structure (SMILES) | herbicidal effects, Se (green foxtail) |
| --- | --- |
| CCCC(c1cncnc1C(F)(F)F)N(C)C(=O)Cc1ccc(F)cc1 (racemic) [Compound 1-112] | 5 |
| CC(C)C(c1cncnc1C(F)(F)F)N(C)C(=S)Cc1ccc(F)cc1 (racemic) [Compound 1-143] | 5 |
| COc1ccc(C(C)C(=O)N(C)C(c2cncnc2C(F)(F)F)C(C)C)cc1 (mixture of isomers) [1-192] | 5 |
| CC(C(=O)N(C)C(c1cncnc1C(F)(F)F)C(C)C)c1ccc(F)cc1 (mixture of isomers) [1-198] | 5 |
| C#CCN(C(=O)Cc1ccc(Cl)cc1)C(c1cncnc1C(F)(F)F)C(C)C (racemic) [1-194] | 5 |
| CC(C)C(c1cncnc1C(F)F)N(C)C(=O)Cc1ccc(F)cc1 (racemic) [Compound 1-164] | 5 |
| CC(C(=O)N(C)C(c1cncnc1C(F)(F)F)C(C)C)c1ccccc1 (mixture of isomers) [1-195] | 5 |
| CC(C)c1ncncc1C(c1ccccc1)N(C)C(=O)Cc1ccc(F)cc1 (racemic) [1-214] | 5 |
| C#CCN(C(=O)Cc1ccccc1)C(c1cncnc1C(F)(F)F)C(C)C (racemic) [1-193] | 5 |
| CN(C(=O)Cc1ccc(Cl)cc1)C(c1cncnc1C(F)(F)F)C1CCCC1 (racemic) [Compound 1-139] | 5 |
| Cc1ccc(CC(=O)N(C)C(c2ccccc2)c2cncnc2C(F)(F)F)cc1 (racemic) [1-197] | 5 |
| CC(C)C(c1cncnc1C(F)(F)F)N(C)C(=O)Cc1ccc(Cl)c(F)c1 (racemic) [1-180] | 5 |
| CC(C)C(c1cncnc1C(F)(F)F)N(C)C(=O)CSc1ccccc1 (racemic) [1-182] | 5 |

tested on: barnyard grass (Ec); assay: Test Example 3: herbicidal effects by foliage treatment in upland field; assay type: in vivo; parameters: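 0-5 growth inhibition grade; 5 = over 90%; 4 = 70-90%; 3 = 50-70%; 2 = 30-50%; 1 = 10-30%; 0 = under 10%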; conditions: dose 100 g active ingredient per 10 ares, examined on the 14th day after treatment
Summary of the method: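 Barnyard grass and green foxtail were grown in upland soil for 2 weeks in a greenhouse. A water-diluted wettable powder was sprayed over the foliage at 100 l per 10 ares, giving 100 g active ingredient per 10 ares. Herbicidal effect was scored on day 14 after treatment.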

| Structure (SMILES) | Ec (herbicidal effects, index) |
| --- | --- |
| CCCC(c1cncnc1C(F)(F)F)N(C)C(=O)Cc1ccc(F)cc1 (racemic) [Compound 1-112] | 4 |
| CC(C)C(c1cncnc1C(F)(F)F)N(C)C(=S)Cc1ccc(F)cc1 (racemic) [Compound 1-143] | 4 |
| COc1ccc(C(C)C(=O)N(C)C(c2cncnc2C(F)(F)F)C(C)C)cc1 (mixture of isomers) [1-192] | 4 |
| CC(C(=O)N(C)C(c1cncnc1C(F)(F)F)C(C)C)c1ccc(F)cc1 (mixture of isomers) [1-198] | 4 |
| C#CCN(C(=O)Cc1ccc(Cl)cc1)C(c1cncnc1C(F)(F)F)C(C)C (racemic) [1-194] | 5 |
| CC(C)C(c1cncnc1C(F)F)N(C)C(=O)Cc1ccc(F)cc1 (racemic) [Compound 1-164] | 4 |
| CC(C(=O)N(C)C(c1cncnc1C(F)(F)F)C(C)C)c1ccccc1 (mixture of isomers) [1-195] | 5 |
| CC(C)c1ncncc1C(c1ccccc1)N(C)C(=O)Cc1ccc(F)cc1 (racemic) [1-214] | 4 |
| C#CCN(C(=O)Cc1ccccc1)C(c1cncnc1C(F)(F)F)C(C)C (racemic) [1-193] | 5 |

tested on: barnyard grass (Eo); assay: Test Example 4: selectivity for a crop plant by flooded paddy field treatment; assay type: in vivo; parameters: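 0-5 growth inhibition grade; 5 = over 90%; 4 = 70-90%; 3 = 50-70%; 2 = 30-50%; 1 = 10-30%; 0 = under 10%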; conditions: barnyard grass, dose 25 gai/10a, 21st day after treatment, index per Table 44
Summary of the method: (§3)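 Flooded-paddy treatment: the wettable powder formulation, diluted in water, was applied dropwise to 3 cm floodwater at 25 g a.i./10 ares one day after sowing barnyard grass and monochoria and transplanting rice at the second leaf stage. Greenhouse grown; herbicidal effect rated against set standards on day 21.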

| Structure (SMILES) | Eo (herbicidal effect index) |
| --- | --- |
| CN(C(=O)Cc1ccc(Cl)cc1)C(c1cncnc1C(F)(F)F)C1CCCC1 (racemic) [Compound 1-139] | 5 |
| Cc1ccc(CC(=O)N(C)C(c2ccccc2)c2cncnc2C(F)(F)F)cc1 (racemic) [1-197] | 5 |
| CC(C)C(c1cncnc1C(F)(F)F)N(C)C(=O)Cc1ccc(Cl)c(F)c1 (racemic) [1-180] | 5 |
| CC(C)C(c1cncnc1C(F)(F)F)N(C)C(=O)CSc1ccccc1 (racemic) [1-182] | 5 |

tested on: monochoria (Mo); assay: as above; assay type: in vivo; parameters: scale not given here; conditions: monochoria, dose 25 gai/10a, 21st day after treatment, index per Table 44
Summary of the method: as §3

| Structure (SMILES) | Mo (herbicidal effect index) |
| --- | --- |
| CN(C(=O)Cc1ccc(Cl)cc1)C(c1cncnc1C(F)(F)F)C1CCCC1 (racemic) [Compound 1-139] | 5 |
| Cc1ccc(CC(=O)N(C)C(c2ccccc2)c2cncnc2C(F)(F)F)cc1 (racemic) [1-197] | 5 |
| CC(C)C(c1cncnc1C(F)(F)F)N(C)C(=O)Cc1ccc(Cl)c(F)c1 (racemic) [1-180] | 5 |
| CC(C)C(c1cncnc1C(F)(F)F)N(C)C(=O)CSc1ccccc1 (racemic) [1-182] | 5 |

tested on: rice (Or); assay: as above; assay type: in vivo; parameters: scale not given here; conditions: rice transplanted at second leaf stage, dose 25 gai/10a, 21st day after treatment, index per Table 44
Summary of the method: as §3

| Structure (SMILES) | Or (herbicidal effect index on crop) |
| --- | --- |
| CN(C(=O)Cc1ccc(Cl)cc1)C(c1cncnc1C(F)(F)F)C1CCCC1 (racemic) [Compound 1-139] | 0 |
| Cc1ccc(CC(=O)N(C)C(c2ccccc2)c2cncnc2C(F)(F)F)cc1 (racemic) [1-197] | 0 |
| CC(C)C(c1cncnc1C(F)(F)F)N(C)C(=O)Cc1ccc(Cl)c(F)c1 (racemic) [1-180] | 1 |
| CC(C)C(c1cncnc1C(F)(F)F)N(C)C(=O)CSc1ccccc1 (racemic) [1-182] | 1 |
